# Laboratory results from patent US20070254891A1, “Crystalline forms of 4-(2-fluorophenyl)-6-methyl-2-(piperazin-1-yl)thieno[2,3-d]pyrimidine” (Dynogen Pharmaceuticals, Inc., priority 2006, published 2007).
# How the values were obtained:
# Assay type in all cases: physicochemical
# [1] = Storage at 40° C./75% RH under ambient light (XRPD, HPLC purity, colour)
# Procedure: (§1) Purity analysis was performed on an Agilent HP1100 system equipped with a diode array detector and using Chemstation V9 software. Gradient, Reverse Phase methods (duration approximately 40 minutes) were used in a HPLC1 system. A Thermo-Electron Corporation HyPurity C18 5 um 150×4.6 mm column was used at 25° C. Test samples were made-up of 0.2 mg/ml of the compound in acetonitrile:water (1:1 v/v). 10 μl of sample was injected into the column. The flow rate through the column was 1 ml/min and the detection wavelength, bandwidth was 254,8 nm. Phase A was 0.1% phosphoric acid in water and Phase B was 0.1% phosphoric acid in acetonitrile. The mobile phase timetable is shown below in Table 2.
# Form I was characterized by pKa, LogP, LogPion and LogD determination and prediction, XRPD before and after storage at 40° C./75% RH for 4 weeks, PLM, DSC and TGA, ^1HNMR, solubility in water with pH measurement, HPLC purity before and after storage at 40° C./75% RH for 4 weeks, water content, GVS with XRPD and purity analysis after measurement, and VT-XRPD.
# Form II has been characterized using XRPD before and after storage at 40° C./75% RH for 3 weeks, PLM, DSC and TGA, Solubility in water with pH measurement, HPLC purity, Water content, GVS with XRPD analysis after measurement, and VT-XRPD.
# [2] = Aqueous solubility with pH measurement; conditions: water, 25° C., 24 hours; hydrochloride
# Procedure: Each sample was suspended in 0.25 ml of solvent (water) in an amount effective to produce a maximum final concentration of greater than or equal to about 10 mg/ml of the parent free form of the compound (i.e., adding excess sample to account for the weight of the salt). […] The filtrate was then diluted down 101 times.
# [3] = 10 week stability study at 40° C./75% RH and 60° C./75% RH, light and dark
# Procedure: as §1
# Samples of Form I and II were tested at 40° C./75% RH and 60° C./75% RH in both light and dark conditions for up to 10 weeks. As the samples were located in temperature/humidity control chambers, the exposure to light was limited to normal laboratory light conditions with artificial light and some winter daylight through the windows.
# Approximately 100 mg of each sample was weighed into plastic weighing boats and spread out to form an even thin layer for each of the temperature/humidity/light conditions, as shown in Table 6. The dark samples were protected from exposure to light by wrapping them in aluminum foil. The foil was pierced to allow exposure to humidity.
# Time points chosen for HPLC analysis during the stability study were T=0, 1, 2, 5 and 10 weeks. At 10 weeks, the samples were analyzed using XRPD, DSC and polarized light microscopy.
# [4] = Accelerated light stability study (Atlas Suntest CPS+ light box)
# Procedure: as §1
# Accelerated Light stability experiments were conducted using an Atlas Suntest CPS+light box. The light exposure was set to 550 W/m^2 and the run time was set to 168 hours (1 week). The chamber temperature and black standard temperature (which indicates how hot the test samples will become) were set to 25° C. The actual temperature in the sample chamber was 40° C.
# Form I and II were assessed using an Atlas Suntest CPS+ light box to determine the effect of their exposure to light over a period of 168 hours (1 week). The light exposure was set to 550 W/M^2. Samples were weighed into either open weighing boats covered by pyrex glass beakers, glass vials with open tops (no lid), or glass vials covered in Aluminum foil. In all instances, the material was spread out into an even, thin layer.
# [5] = Variable temperature XRPD (VT-XRPD); conditions: 25° C. to 245° C., then cooled to 30° C.
# Procedure: Samples run under ambient conditions were prepared as flat plate specimens using powder without grinding unless otherwise stated. Approximately 1-2 mg of the sample was lightly pressed on a glass slide to obtain a flat surface. Samples run under non-ambient conditions (VT-XRPD) were mounted on a silicon wafer with heat conducting compound. The sample was then heated to the appropriate temperature at about 20° C./minute and subsequently held isothermally for about 1 minute before data collection was initiated.
# Three samples were studied using variable temperature XRPD (VT-XRPD): Form I as received, substantially pure Form I as prepared in Example 3, and substantially pure Form II as prepared in Example 3. VT-XRPD studies were initially carried out on substantially pure Form I as prepared in Example 3 with measurements at 25° C., 50° C., 80° C., 150° C., 220° C., 225° C., 250° C. and cooling to 29° C. Prior to measurement of the last XRPD pattern, the material was crushed due to the growth of large crystals. An overlay of the XRPD patterns can be found in FIG. 4A.
# An experiment was also carried out on Form I as received, with measurements at 26° C., 50° C., 150° C., 200° C., 210° C., 220° C., 230° C. and cooling to 27° C. An overlay of the XRPD patterns can be found in FIG. 4B. […] (see peak at ˜14.7 2θ). […]
structure (smiles),measurement,setting,value
"Cc1cc2c(-c3ccccc3F)nc(N3CCNCC3)nc2s1.Cl [Form II, 4-(2-fluorophenyl)-6-methyl-2-(piperazin-1-yl)thieno[2,3-d]pyrimidine hydrochloride]",Colour of material surface after storage,"[1]; 3 weeks at 40° C./75% RH, ambient light",had not changed color
same,XRPD after storage,"[1]; 40° C./75% RH for 4 days, samples from acetone and acetonitrile",remained unchanged
same,XRPD pattern after storage,[1]; 40° C./75% RH for three weeks,unchanged
same,HPLC purity after storage,[1]; three weeks at 40° C./75% RH,100%
same,Aqueous solubility (free base equivalent),[2],1600 µg/mL
same,pH of the solubility sample,[2],6.39
same,Purity %,"[3]; 40° C./75% RH, Dark, 1 week",99.9%
same,Purity %,"[3]; 40° C./75% RH, Dark, 2 weeks",100%
same,Purity %,"[3]; 40° C./75% RH, Dark, 5 weeks",100%
same,Purity %,"[3]; 40° C./75% RH, Dark, 10 weeks, hydrochloride",100%
same,Purity %,"[3]; 40° C./75% RH, Light, 1 week",99.9%
same,Purity %,"[3]; 40° C./75% RH, Light, 2 weeks",100%
same,Purity %,"[3]; 40° C./75% RH, Light, 5 weeks, hydrochloride",99.9%
same,Purity %,"[3]; 40° C./75% RH, Light, 10 weeks, hydrochloride",99.9%
same,Purity %,"[3]; 60° C./75% RH, Dark, 1 week",99.9%
same,Purity %,"[3]; 60° C./75% RH, Dark, 2 weeks, hydrochloride",100%
same,Purity %,"[3]; 60° C./75% RH, Dark, 5 weeks",100%
same,Purity %,"[3]; 60° C./75% RH, Dark, 10 weeks, hydrochloride",99.9%
same,Purity %,"[3]; 60° C./75% RH, Light, 1 week",99.8%
same,Purity %,"[3]; 60° C./75% RH, Light, 2 weeks, hydrochloride",99.9%
same,Purity %,"[3]; 60° C./75% RH, Light, 5 weeks, hydrochloride",99.8%
same,Purity %,"[3]; 60° C./75% RH, Light, 10 weeks, hydrochloride",99.7%
same,Purity %,"[3]; time point 0 weeks, hydrochloride",99.9%
same,Stability as indicated by the HPLC data,"[3]; up to 10 weeks, 40° C./75% RH and 60° C./75% RH",stable to ambient light levels as well as elevated temperature and humidity
same,Rate of degradation relative to Form I,[4]; 1 week at elevated light levels,about half the rate of Form I
same,Purity after 1 week light exposure,[4]; 20 ml glass vial covered in Al foil with loose lid (control),99.9
same,Purity after 1 week light exposure,"[4]; 20 ml glass vial, 550 W/m^2, 168 hours, hydrochloride",90.7
same,HPLC purity after accelerated light study,"[4]; one week, FIGS. 6A/6B (open weighing boats), hydrochloride",88.3%
same,Purity after 1 week light exposure,"[4]; open weighing boat, 550 W/m^2, 168 hours, hydrochloride",88.3
same,Form on heating (VT-XRPD),[5],remained as Form II throughout the experiment
